Experimental data from US20190315806A1, “POLYMYXIN DERIVATIVE, PREPARATION METHOD AND APPLICATION THEREOF” (priority 2016, published 2019).
In brackets after ≈: the same amount, converted by molar mass. Where a SMILES comes first, the peptide text is derived from it. Bridges are numbered along the chain shown (N, C = ends). [ ]: non-standard residue; d: D form. The star is where a group is joined. Heptanoyl(6-Me) = CC(C)CCCCC(=O)*; X2 = CC[C@H](C)CCCCC(=O)*; dDab = NCC[C@@H](N)C(=O)O; Dab = NCC[C@H](N)C(=O)O

Experiments:
Assay type in all cases: cell-based
[1] = system: Klebsiella pneumoniae ATCC BAA-2146 (NDM-1); experiment: Antibacterial activity, MIC by dish double dilution method; conditions: ATCC BAA-2146
Summary of the method: (§1)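 MIC by CLSI agar (plate) twofold dilution, final compound levels 0.03–128 μg/mL in agar. Overnight cultures in nutrient broth, brain heart infusion or HTM broth were spotted at 10^4 CFU/dot by multipoint inoculator. After 18 to 24 hours at 35° C., MIC taken as lowest concentration showing no colony growth.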

[2] = Nephrotoxicity test, renal cytotoxicity by MTT method; conditions: African green monkey
Summary of the method: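 Vero cells, adhered 24 h, exposed to a compound concentration gradient for 72 h at 37 °C, 5% CO2. Viability by MTT (0.5 mg/ml, 3 h), DMSO-solubilised, A570 nm, normalised to background and untreated control. IC50 from inhibition curve, mean of 3 wells per point.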

[3] = system: Pseudomonas aeruginosa ATCC 27853; conditions: ATCC 27853
Summary of the method: as §1

[4] = system: Escherichia coli ATCC 25922; conditions: ATCC 25922
Summary of the method: as §1

[5] = system: Staphylococcus epidermidis ATCC 12228; conditions: ATCC 12228
Summary of the method: as §1

[6] = system: Acinetobacter baumannii ATCC 19606; conditions: ATCC 19606
Summary of the method: as §1

MIC K. pneumoniae ATCC BAA-2146 (NDM-1) [1] [µg/mL] | MIC P. aeruginosa ATCC 27853 [3] [µg/mL] | MIC E. coli ATCC 25922 [4] [µg/mL] | MIC S. epidermidis ATCC 12228 [5] [µg/mL] | MIC A. baumannii ATCC 19606 [6] [µg/mL] | SMILES | IC50 at 72 h [2] [µg/mL]
0.5 (≈ 0.424 µM) | 2 (≈ 1.7 µM) | 0.25 (≈ 0.212 µM) | >128 | 0.12 (≈ 0.102 µM) | CC[C@H](C)CCCCC(=O)N[C@@H](CCN)C(=O)N[C@H](C(=O)N[C@H](CO)C(=O)N[C@H]1CCNC(=O)[C@H]([C@@H](C)O)NC(=O)[C@H](CCN)NC(=O)[C@H](CCN)NC(=O)[C@H]([C@@H](C)O)NC(=O)[C@@H](Cc2ccccc2)NC(=O)[C@H](CCN)NC1=O)[C@@H](C)O [Compound 115, (S)-6-methyloctanoyl-Dab-Thr-D-Ser-ring(4-10)[Dab-Dab-D-Phe-Thr-Dab-Dab-Thr]] (X2-[Dab]T[dS][Dab][Dab][dF]T[Dab][Dab]T; lactam 4-C) | 160 ± 23.4 (≈ 136 µM)
1 (≈ 0.859 µM) | 2 (≈ 1.72 µM) | 0.25 (≈ 0.215 µM) | >128 | 0.25 (≈ 0.215 µM) | CC(C)CCCCC(=O)N[C@@H](CCN)C(=O)N[C@H](C(=O)N[C@H](CO)C(=O)N[C@H]1CCNC(=O)[C@H]([C@@H](C)O)NC(=O)[C@H](CCN)NC(=O)[C@H](CCN)NC(=O)[C@H]([C@@H](C)O)NC(=O)[C@@H](Cc2ccccc2)NC(=O)[C@H](CCN)NC1=O)[C@@H](C)O [Compound 116, 6-methylheptanoyl-Dab-Thr-D-Ser-ring(4-10)[Dab-Dab-D-Phe-Thr-Dab-Dab-Thr]] ({Heptanoyl(6-Me)}-[Dab]T[dS][Dab][Dab][dF]T[Dab][Dab]T; lactam 4-C) | > 500
4 (≈ 3.29 µM) | 4 (≈ 3.29 µM) | 4 (≈ 3.29 µM) | 8 (≈ 6.58 µM) | 2 (≈ 1.65 µM) | CC[C@H](C)CCCCC(=O)N[C@@H](CCN)C(=O)N[C@H](C(=O)N[C@@H](CCN)C(=O)N[C@H]1CCNC(=O)[C@H](CC(C)C)NC(=O)[C@H](CCN)NC(=O)[C@H](CCN)NC(=O)[C@H](CC(C)C)NC(=O)[C@@H](Cc2ccccc2)NC(=O)[C@H](CCN)NC1=O)[C@@H](C)O [Compound 127, (S)-6-methyloctanoyl-Dab-Thr-Dab-ring(4-10)[Dab-Dab-D-Phe-Lue-Dab-Dab-Lue]] (X2-[Dab]T[Dab][Dab][Dab][dF]L[Dab][Dab]L; lactam 4-C) | 17.2 ± 2.16 (≈ 14.1 µM)
4 (≈ 3.33 µM) | 4 (≈ 3.33 µM) | 4 (≈ 3.33 µM) | 16 (≈ 13.3 µM) | 4 (≈ 3.33 µM) | CC(C)CCCCC(=O)N[C@@H](CCN)C(=O)N[C@H](C(=O)N[C@@H](CCN)C(=O)N[C@H]1CCNC(=O)[C@H](CC(C)C)NC(=O)[C@H](CCN)NC(=O)[C@H](CCN)NC(=O)[C@H](CC(C)C)NC(=O)[C@@H](Cc2ccccc2)NC(=O)[C@H](CCN)NC1=O)[C@@H](C)O [Compound 128, 6-methylheptanoyl-Dab-Thr-Dab-ring(4-10)[Dab-Dab-D-Phe-Lue-Dab-Dab-Lue]] ({Heptanoyl(6-Me)}-[Dab]T[Dab][Dab][Dab][dF]L[Dab][Dab]L; lactam 4-C) | 30.1 ± 2.59 (≈ 25 µM)
1 (≈ 0.839 µM) | 1 (≈ 0.839 µM) | 0.5 (≈ 0.42 µM) | >128 | 1 (≈ 0.839 µM) | CC[C@H](C)CCCCC(=O)N[C@@H](CCN)C(=O)N[C@H](C(=O)N[C@H](CCN)C(=O)N[C@H]1CCNC(=O)[C@H]([C@@H](C)O)NC(=O)[C@H](CCN)NC(=O)[C@H](CCN)NC(=O)[C@H]([C@@H](C)O)NC(=O)[C@@H](Cc2ccccc2)NC(=O)[C@H](CCN)NC1=O)[C@@H](C)O [Compound 143, (S)-6-methyloctanoyl-Dab-Thr-D-Dab-ring(4-10)[Dab-Dab-D-Phe-Thr-Dab-Dab-Thr]] (X2-[Dab]T[dDab][Dab][Dab][dF]T[Dab][Dab]T; lactam 4-C) | 142 ± 15.2 (≈ 119 µM)
